Experiments:
Experiment in all cases: relative viability (nuclei count vs DMSO), 5 days (fraction); higher = more cells survive
[1] = compound: Cn1cc(-c2cnn3c(N)c(Br)c([C@@H]4CCCNC4)nc23)cn1 + CS(=O)(=O)N1CCN(Cc2cc3nc(-c4cccc5[nH]ncc45)nc(N4CCOCC4)c3s2)CC1 [Pictilisib] (partner 1 µM)
Summary of the method: (§1)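 After 5 days of treatment, lung cancer cells in 1536-well plates were fixed and stained in a single step (final 0.05% Triton X-100, 1% formaldehyde, 1 ug/ml Hoechst) and their nuclei counted on 4× images. Treatment had been applied by pin tool the day after seeding as one drug alone or as a fixed anchor-drug dose with five library-drug doses (not always all listed) in √10 steps. Relative viability is the nuclei count of treated wells divided by that of vehicle wells, and values are medians of duplicate plates.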

[2] = compound: Cn1cc(-c2cnn3c(N)c(Br)c([C@@H]4CCCNC4)nc23)cn1 + Cc1nc(NC(=O)N2CCC[C@H]2C(N)=O)sc1-c1ccnc(C(C)(C)C(F)(F)F)c1 [Alpelisib] (partner 2 µM)
Summary of the method: as §1

[3] = compound: Cn1cc(-c2cnn3c(N)c(Br)c([C@@H]4CCCNC4)nc23)cn1 + N=C(N)NC(=N)NCCc1ccccc1 [Phenformin] (partner 250 µM)
Summary of the method: as §1

[4] = compound: Cn1cc(-c2cnn3c(N)c(Br)c([C@@H]4CCCNC4)nc23)cn1 + NC(=O)Nc1cc(-c2cccc(F)c2)sc1C(=O)N[C@H]1CCCNC1 [AZD7762] (partner 0.2 µM)
Summary of the method: as §1

Row | Cell Line | relative viability ([1]; first compound 0.05 µM) | relative viability ([1]; first compound 0.1581 µM) | relative viability ([1]; first compound 0.5 µM) | relative viability ([1]; first compound 1.581 µM) | relative viability ([1]; first compound 5 µM) | relative viability ([2]; first compound 0.05 µM) | relative viability ([2]; first compound 0.1581 µM) | relative viability ([2]; first compound 0.5 µM) | relative viability ([2]; first compound 1.581 µM) | relative viability ([2]; first compound 5 µM) | relative viability ([3]; first compound 0.05 µM) | relative viability ([3]; first compound 0.1581 µM) | relative viability ([3]; first compound 0.5 µM) | relative viability ([3]; first compound 1.581 µM) | relative viability ([3]; first compound 5 µM) | relative viability ([4]; first compound 0.05 µM) | relative viability ([4]; first compound 0.1581 µM) | relative viability ([4]; first compound 0.5 µM) | relative viability ([4]; first compound 1.581 µM) | relative viability ([4]; first compound 5 µM)
1 | HCC-366 | 0.278 | 0.17 | 0.156 | 0.205 | 0.263 | 0.439 | 0.539 | 0.493 | 0.368 | 0.156 | 0.617 | 0.67 | 0.618 | 0.558 | 0.507 | 0.202 | 0.247 | 0.344 | 0.229 | 0.224
2 | HCC-827 | 0.999 | 1.13 | 0.974 | 1 | 0.928 | 0.992 | 1.04 | 1.03 | 1.06 | 1.06 | 0.289 | 0.452 | 0.368 | 0.388 | 0.389 | 0.183 | 0.188 | 0.193 | 0.211 | 0.17
3 | HOP-62 | 0.896 | 0.699 | 0.586 | 0.444 | 0.455 | 1.1 | 0.815 | 0.997 | 0.649 | 1.19 | 0.648 | 0.866 | 0.737 | 0.527 | 0.62 | 0.526 | 1.06 | 0.622 | 0.534 | 0.271
4 | IA-LM | 0.357 | 0.372 | 0.33 | 0.206 | 0.196 | 0.757 | 1.05 | 0.574 | 0.591 | 0.589 | – | – | – | – | – | – | – | – | – | –
5 | LC-2-ad | 0.546 | 0.466 | 0.335 | 0.349 | 0.272 | 0.873 | 1.04 | 0.837 | 0.917 | 0.838 | 0.558 | 0.643 | 0.64 | 0.539 | 0.529 | 0.841 | 0.949 | 0.819 | 0.805 | 0.881
6 | LCLC-97TM1 | 0.16 | 0.149 | 0.26 | 0.152 | 0.143 | 0.188 | 0.299 | 0.23 | 0.228 | 0.189 | 0.499 | 0.47 | 0.464 | 0.458 | 0.411 | 0.296 | 0.367 | 0.264 | 0.217 | 0.222
7 | LCLC-103H | 0.565 | 0.555 | 0.522 | 0.489 | 0.466 | 0.957 | 0.962 | 0.867 | 1.05 | 0.847 | 0.297 | 0.338 | 0.364 | 0.3 | 0.299 | 0.834 | 0.914 | 0.728 | 0.738 | 0.685
8 | NCI-H520 | 0.266 | 0.318 | 0.283 | 0.208 | 0.267 | 0.86 | 0.887 | 0.763 | 0.64 | 0.785 | 0.52 | 0.587 | 0.596 | 0.461 | 0.348 | – | – | – | – | –
9 | NCI-H661 | 0.321 | 0.432 | 0.441 | 0.291 | 0.357 | 0.596 | 0.611 | 0.521 | 0.667 | 0.297 | 0.273 | 0.259 | 0.29 | 0.283 | 0.276 | – | – | – | – | –
10 | NCI-H1299 | 0.876 | 0.562 | 0.462 | 0.175 | 0.223 | 1.03 | 1.13 | 1.09 | 1.05 | 0.954 | – | – | – | – | – | – | – | – | – | –
11 | NCI-H1563 | 0.581 | 0.63 | 0.658 | 0.585 | 0.595 | 0.827 | 0.835 | 0.935 | 0.8 | 0.762 | 0.593 | 0.658 | 0.642 | 0.614 | 0.605 | – | – | – | – | –
12 | NCI-H1648 | – | – | – | – | – | – | – | – | – | – | – | – | – | – | – | 0.607 | 0.635 | 0.717 | 0.649 | 0.637
13 | NCI-H1650 | 0.66 | 0.654 | 0.681 | 0.479 | 0.24 | – | – | – | – | – | – | 0.505 | 0.403 | 0.33 | 0.218 | – | – | – | – | –
14 | NCI-H1703 | 0.237 | 0.183 | 0.178 | 0.156 | 0.155 | 0.374 | 0.318 | 0.259 | 0.161 | 0.139 | – | – | – | – | – | 0.0942 | 0.119 | 0.139 | 0.102 | 0.098
15 | NCI-H2009 | 0.712 | 0.873 | 0.714 | 0.517 | 0.552 | 1.17 | 1.25 | 1.09 | 1.09 | 0.849 | 0.487 | 0.507 | 0.453 | 0.434 | 0.409 | – | – | – | – | –
16 | NCI-H2023 | 0.268 | 0.226 | 0.194 | 0.143 | 0.11 | 0.494 | 0.497 | 0.48 | 0.3 | 0.193 | 0.426 | 0.368 | 0.245 | 0.203 | 0.129 | – | – | – | – | –
17 | NCI-H2228 | 0.258 | 0.286 | 0.297 | 0.355 | 0.351 | 0.794 | 1.15 | 0.87 | 0.541 | 0.372 | 0.274 | 0.256 | 0.373 | 0.184 | 0.194 | – | – | – | – | –
18 | NCI-H2342 | – | – | – | – | – | – | – | – | – | – | 0.578 | 0.6 | 0.682 | 0.533 | 0.593 | 0.493 | 0.491 | 0.542 | 0.487 | 0.29
19 | SK-LU-1 | 0.569 | 0.424 | 0.458 | 0.365 | 0.278 | 1.19 | – | 0.463 | 0.339 | 0.248 | 0.515 | 0.426 | 0.299 | 0.254 | 0.184 | – | – | – | – | –
20 | SK-MES-1 | 0.333 | 0.395 | 0.336 | 0.288 | 0.216 | 1.01 | 1.03 | 0.94 | 0.763 | 0.592 | 0.664 | 0.735 | 0.663 | 0.419 | 0.188 | – | – | – | – | –
21 | SW 1573 | 0.48 | 0.572 | 0.502 | 0.461 | 0.499 | 0.779 | 1.07 | 0.801 | 0.78 | 0.616 | 0.388 | 0.381 | 0.325 | 0.215 | 0.219 | – | – | – | – | –
22 | UMC-11 | 0.926 | 0.782 | 0.709 | 0.397 | 0.431 | 1.04 | 1.07 | 0.675 | 0.621 | 0.579 | 0.337 | 0.309 | 0.32 | 0.305 | 0.274 | – | – | – | – | –
